The values below are quoted from earlier work in paper PMC4336743, “Improved production of sublancin via introduction of three characteristic promoters into operon clusters responsible for this novel distinct glycopeptide biosynthesis” (Microbial Cell Factories, 2015).

Series [1] relates to proteinases, peptidases. As to the method: Proteolytic susceptibility of sublancin should also be considered in various applications such as in treating bacterial–mediated mastitis or bacterial–mediated gastroenteritis. Therefore, a number of bacterial proteases and gastrointestinal digestive enzymes, e.g., P. aeruginosa elastase and S. aureus V8 protease, pepsin and trypsin would certainly be encountered. […] All experiments were performed in vitro; therefore in vivo studies should be conducted prior to clinical ap ...

Series [2] concerns S. aureus. The protocol: Antibacterial activity and cytotoxicity of sublancin were also evaluated. […] These findings are consistent with previously reported study and is almost equal to that of nisin that is a common and typical antimicrobial peptide from Lactococcus lactis, and is widely used in clinical and food preservation applications, with MIC of 0.5 mg/L against S. aureus.

Consider Bovicin HC5, for which the “antimicrobial potency after exposure to proteinases, peptidases and heat” value in series [1] is reported as “remarkable antimicrobial potency reduction”.
As for nisin, the “MIC against S. aureus” value in series [2] is given as 0.5 mg/L.
